According to PubChem BioAssay AID1259407 (Chemical Carcinogenesis Research Information System (CCRIS), 2018):
Calls of active or inactive are those of the source. How the calls were made is not given here.

Test system: CCRIS mutagenicity, Ames/micronucleus/aberration tests
Assay: CCRIS mutagenicity studies
Conditions: Test System: AMES SALMONELLA TYPHIMURIUM

Measured: mutagenic call

CCN(N=O)c1ccccc1
inactive: Strain/Indicator: TA98, Metabolic Activation: HAMSTER, LIVER, S-9, AROCLOR 1254, Method: PREINCUBATION inactive; negative | Strain/Indicator: TA98, Metabolic Activation: HAMSTER, LIVER, S-9, AROCLOR 1254, Method: STANDARD PLATE inactive; negative | Strain/Indicator: TA98, Metabolic Activation: HAMSTER, LIVER, S-9, Method: PREINCUBATION inactive; negative | Strain/Indicator: TA98, Metabolic Activation: HAMSTER, LIVER, S-9, Method: STANDARD PLATE inactive; negative | Strain/Indicator: TA98, Metabolic Activation: MOUSE, LIVER, S-9, AROCLOR 1254, Method: PREINCUBATION inactive; negative | Strain/Indicator: TA98, Metabolic Activation: MOUSE, LIVER, S-9, AROCLOR 1254, Method: STANDARD PLATE inactive; negative | Strain/Indicator: TA98, Metabolic Activation: MOUSE, LIVER, S-9, Method: PREINCUBATION inactive; negative | Strain/Indicator: TA98, Metabolic Activation: MOUSE, LIVER, S-9, Method: STANDARD PLATE inactive; negative | Strain/Indicator: TA98, Metabolic Activation: NONE, Method: PREINCUBATION inactive; negative | Strain/Indicator: TA98, Metabolic Activation: NONE, Method: STANDARD PLATE inactive; negative | Strain/Indicator: TA98, Metabolic Activation: RAT, LIVER, S-9, AROCLOR 1254, Method: PREINCUBATION inactive; negative | Strain/Indicator: TA98, Metabolic Activation: RAT, LIVER, S-9, AROCLOR 1254, Method: STANDARD PLATE inactive; negative | Strain/Indicator: TA98, Metabolic Activation: RAT, LIVER, S-9, Method: PREINCUBATION inactive; negative | Strain/Indicator: TA98, Metabolic Activation: RAT, LIVER, S-9, Method: STANDARD PLATE inactive; negative | Strain/Indicator: TA100, Metabolic Activation: HAMSTER, LIVER, S-9, AROCLOR 1254, Method: PREINCUBATION inactive; negative | Strain/Indicator: TA100, Metabolic Activation: HAMSTER, LIVER, S-9, AROCLOR 1254, Method: STANDARD PLATE inactive; negative | Strain/Indicator: TA100, Metabolic Activation: HAMSTER, LIVER, S-9, Method: PREINCUBATION inactive; negative | Strain/Indicator: TA100, Metabolic Activation: HAMSTER, LIVER, S-9, Method: STANDARD PLATE inactive; negative | Strain/Indicator: TA100, Metabolic Activation: MOUSE, LIVER, S-9, AROCLOR 1254, Method: PREINCUBATION inactive; negative | Strain/Indicator: TA100, Metabolic Activation: MOUSE, LIVER, S-9, AROCLOR 1254, Method: STANDARD PLATE inactive; negative | Strain/Indicator: TA100, Metabolic Activation: MOUSE, LIVER, S-9, Method: PREINCUBATION inactive; negative | Strain/Indicator: TA100, Metabolic Activation: MOUSE, LIVER, S-9, Method: STANDARD PLATE inactive; negative | Strain/Indicator: TA100, Metabolic Activation: NONE, Method: PREINCUBATION inactive; negative | Strain/Indicator: TA100, Metabolic Activation: NONE, Method: STANDARD PLATE inactive; negative | Strain/Indicator: TA100, Metabolic Activation: RAT, LIVER, S-9, AROCLOR 1254, Method: PREINCUBATION inactive; negative | Strain/Indicator: TA100, Metabolic Activation: RAT, LIVER, S-9, AROCLOR 1254, Method: STANDARD PLATE inactive; negative | Strain/Indicator: TA100, Metabolic Activation: RAT, LIVER, S-9, Method: PREINCUBATION inactive; negative | Strain/Indicator: TA100, Metabolic Activation: RAT, LIVER, S-9, Method: STANDARD PLATE inactive; negative | Strain/Indicator: TA1535, Metabolic Activation: HAMSTER, LIVER, S-9, AROCLOR 1254, Method: PREINCUBATION inactive; negative | Strain/Indicator: TA1535, Metabolic Activation: HAMSTER, LIVER, S-9, AROCLOR 1254, Method: STANDARD PLATE inactive; negative | Strain/Indicator: TA1535, Metabolic Activation: HAMSTER, LIVER, S-9, Method: PREINCUBATION inactive; negative | Strain/Indicator: TA1535, Metabolic Activation: HAMSTER, LIVER, S-9, Method: STANDARD PLATE inactive; negative | Strain/Indicator: TA1535, Metabolic Activation: MOUSE, LIVER, S-9, AROCLOR 1254, Method: PREINCUBATION inactive; negative | Strain/Indicator: TA1535, Metabolic Activation: MOUSE, LIVER, S-9, AROCLOR 1254, Method: STANDARD PLATE inactive; negative | Strain/Indicator: TA1535, Metabolic Activation: MOUSE, LIVER, S-9, Method: PREINCUBATION inactive; negative | Strain/Indicator: TA1535, Metabolic Activation: MOUSE, LIVER, S-9, Method: STANDARD PLATE inactive; negative | Strain/Indicator: TA1535, Metabolic Activation: NONE, Method: PREINCUBATION inactive; negative | Strain/Indicator: TA1535, Metabolic Activation: NONE, Method: STANDARD PLATE inactive; negative | Strain/Indicator: TA1535, Metabolic Activation: RAT, LIVER, S-9, AROCLOR 1254, Method: PREINCUBATION inactive; negative | Strain/Indicator: TA1535, Metabolic Activation: RAT, LIVER, S-9, AROCLOR 1254, Method: STANDARD PLATE inactive; negative | Strain/Indicator: TA1535, Metabolic Activation: RAT, LIVER, S-9, Method: PREINCUBATION inactive; negative | Strain/Indicator: TA1535, Metabolic Activation: RAT, LIVER, S-9, Method: STANDARD PLATE inactive; negative
